Data reported in the supplement of paper PMC10307832.

Key:
Experiment in all cases: relative viability (nuclei count vs DMSO), 5 days (fraction); higher = more cells survive
Bosutinib + Lapatinib = compound: COc1cc(Nc2c(C#N)cnc3cc(OCCCN4CCN(C)CC4)c(OC)cc23)c(Cl)cc1Cl [Bosutinib] + CS(=O)(=O)CCNCc1ccc(-c2ccc3ncnc(Nc4ccc(OCc5cccc(F)c5)c(Cl)c4)c3c2)o1 [Lapatinib] (partner 2 µM)
In short: (§1)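 Lung cancer cell lines were seeded in 1536-well plates and dosed by pin tool the next day, with either a single drug or a fixed anchor-drug dose combined with five library-drug doses (not always all listed) spaced in √10 steps. Five days later, one step fixed the cells and stained their nuclei (final 0.05% Triton X-100, 1% formaldehyde, 1 ug/ml Hoechst), and nuclei were counted on 4× images. Relative viability is the nuclei count in treated wells divided by the count in vehicle wells, and each value is the median of duplicate plates.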

Bosutinib + AZD7762 = compound: COc1cc(Nc2c(C#N)cnc3cc(OCCCN4CCN(C)CC4)c(OC)cc23)c(Cl)cc1Cl [Bosutinib] + NC(=O)Nc1cc(-c2cccc(F)c2)sc1C(=O)N[C@H]1CCCNC1 [AZD7762] (partner 0.2 µM)
In short: as §1

Bosutinib + Alpelisib = compound: COc1cc(Nc2c(C#N)cnc3cc(OCCCN4CCN(C)CC4)c(OC)cc23)c(Cl)cc1Cl [Bosutinib] + Cc1nc(NC(=O)N2CCC[C@H]2C(N)=O)sc1-c1ccnc(C(C)(C)C(F)(F)F)c1 [Alpelisib] (partner 2 µM)
In short: as §1

Bosutinib + Dasatinib = compound: COc1cc(Nc2c(C#N)cnc3cc(OCCCN4CCN(C)CC4)c(OC)cc23)c(Cl)cc1Cl [Bosutinib] + Cc1nc(Nc2ncc(C(=O)Nc3c(C)cccc3Cl)s2)cc(N2CCN(CCO)CC2)n1 [Dasatinib] (partner 0.075 µM)
In short: as §1

Bosutinib + Phenformin = compound: COc1cc(Nc2c(C#N)cnc3cc(OCCCN4CCN(C)CC4)c(OC)cc23)c(Cl)cc1Cl [Bosutinib] + N=C(N)NC(=N)NCCc1ccccc1 [Phenformin] (partner 250 µM)
In short: as §1

Cell Line	relative viability (Bosutinib + Lapatinib; first compound 0.01 µM)	relative viability (Bosutinib + Lapatinib; first compound 0.03162 µM)	relative viability (Bosutinib + Lapatinib; first compound 0.1 µM)	relative viability (Bosutinib + Lapatinib; first compound 1 µM)	relative viability (Bosutinib + AZD7762; first compound 0.01 µM)	relative viability (Bosutinib + AZD7762; first compound 0.03162 µM)	relative viability (Bosutinib + AZD7762; first compound 0.1 µM)	relative viability (Bosutinib + AZD7762; first compound 1 µM)	relative viability (Bosutinib + Alpelisib; first compound 0.01 µM)	relative viability (Bosutinib + Alpelisib; first compound 0.03162 µM)	relative viability (Bosutinib + Alpelisib; first compound 0.1 µM)	relative viability (Bosutinib + Alpelisib; first compound 1 µM)	relative viability (Bosutinib + Dasatinib; first compound 0.01 µM)	relative viability (Bosutinib + Dasatinib; first compound 0.03162 µM)	relative viability (Bosutinib + Dasatinib; first compound 0.1 µM)	relative viability (Bosutinib + Dasatinib; first compound 1 µM)	relative viability (Bosutinib + Phenformin; first compound 0.01 µM)	relative viability (Bosutinib + Phenformin; first compound 0.03162 µM)	relative viability (Bosutinib + Phenformin; first compound 0.1 µM)	relative viability (Bosutinib + Phenformin; first compound 1 µM)
LOU-NH91	0.759	0.824	0.791	0.723	0.78	0.757	0.704	0.679	0.807	0.7	0.638	0.46	0.578	0.577	0.547	0.556	0.717	0.699	0.636	0.497
LU99A	1.05	1.01	0.976	0.876	0.376	0.362	0.354	0.287	0.53	0.545	0.568	0.674	0.611	0.582	0.635	0.548	0.92	0.781	0.832	0.478
LXF-289	0.881	0.912	0.913	0.929	1.17	1.14	1.14	1.02	1.03	0.986	1.01	1.06	0.231	0.213	0.2	0.224	0.508	0.515	0.521	0.514
NCI-H23	1.09	1.06	1.2	1.11	0.356	0.205	0.202	0.164	0.674	0.666	0.519	0.546	0.927	0.937	0.679	0.76	0.807	0.77	0.831	0.751
NCI-H322M	0.51	0.589	0.623	0.573	0.609	0.534	0.546	0.52	0.665	0.741	0.717	0.81	0.252	0.267	0.246	0.301	0.865	0.777	0.846	0.449
NCI-H358	0.558	0.476	0.41	0.543	0.638	0.547	0.556	0.359	0.862	0.817	0.771	0.585	0.2	0.201	0.206	0.366	0.387	0.309	0.32	0.357
NCI-H460	1.03	0.875	0.874	0.833	0.645	0.576	0.482	0.415	0.5	0.533	0.428	0.201	0.548	0.491	0.51	0.537	0.557	0.492	0.491	0.356
